This note sets out measurements from paper PMC7450057, “Enhancing intracellular accumulation and target engagement of PROTACs with reversible covalent chemistry” (Nature Communications, 2020).

“And” between values parts separate entries of the source, which are not always exact repeats. Equal values may be shown once.

One data set concerns the target T1, BTK-NanoLuc fusion (Homo sapiens, UniProt Q06187).
T1 construct: host or cells: HEK 293T/17
Briefly: NanoBRET BTK in-cell target engagement assay. It counts as cell-based. Particulars: Figure 3d, triplicates. The method, then: The target engagement assay for BTK or CRBN was from Promega (BTK kit, Cat. No. N2500; CRBN kit, Cat. No. CS1810C136) and was performed according to the manufacture’s instruction with some modifications. Briefly, HEK 293/T17 cells (ATCC) were transiently transfected with BTK-NanoLuc® fusion vector or NanoLuc®-CRBN fusion vector (Promega) in 0.125 M CaCl2 and 1x HBS. Forty-eight hours after transfection, the cells were resuspended in Opti-MEM medium (Life Technologies, Cat. No. 11058021) at the density of 2 × 10^5 cells per mL and were plated into 96-well plates (Corning, Cat. No. CLS3600). Cells were incubated with 1.0 µM (BTK) or 0.5 µM (CRBN) NanoBRET™ Tracer and serially diluted unlabeled BTK PROTAC compounds (from 10 to 0.0032 µM, 5-fold dilution) for 2 h at 37 °С with 5% CO2 in an incubator. After 2 h incubation, the 3X Nano-Glo® Substrate with NanoLuc® extracellular inhibitor were added to cells and developed for 3 min at room temperature. BRET signals were collected using a BioTek SYNERGY H1 microplate reader equipped with a 450/80-nm BP filter for donor emission and a 610-nm LP filter for acceptor emission. BRET Ratio was calculated with the equation: [(Acceptor sample/Donor sample)–(Acceptor no tracer control/Donor no tracer control)] × 1000. The IC50 of the compound against its BTK or CRBN tracer was calculated using GraphPad Prism software.
(BRET reads energy transfer from a luciferase to a nearby fluorophore.)

A further data set deals with Mino cells. Briefly: AlamarBlue cell viability assay, Mino. It counts as cell-based. Particulars: for Mino Cell Viability%: Figure 2f, 5 replicates. On the technique in general: Resazurin is reduced to fluorescent resorufin, in cell work by metabolically active cells.
The next data set has as its system MOLM-14 cells. As to the kind of experiment: AlamarBlue cell viability assay, MOLM-14. Particulars: for MOLM-14 Cell Viability%: Figure 2f, 5 replicates; for Cell viability, MOML-14: Supplementary Figure 7, replicates.
A further data set addresses BTK (Homo sapiens, UniProt Q06187). Briefly: BTK degradation in MOLM-14 cells (western blot). Format: cell-based. The arrangement: endogenous in cells; host or cells: MOLM-14. Conditions: MOLM-14 cells; for Degradation at 200 nM (percentage of BTK degradation): 24 h incubation. A general note: In western blotting, separated proteins are transferred to a membrane and probed.

BTK, sequence (Q06187 whole entry): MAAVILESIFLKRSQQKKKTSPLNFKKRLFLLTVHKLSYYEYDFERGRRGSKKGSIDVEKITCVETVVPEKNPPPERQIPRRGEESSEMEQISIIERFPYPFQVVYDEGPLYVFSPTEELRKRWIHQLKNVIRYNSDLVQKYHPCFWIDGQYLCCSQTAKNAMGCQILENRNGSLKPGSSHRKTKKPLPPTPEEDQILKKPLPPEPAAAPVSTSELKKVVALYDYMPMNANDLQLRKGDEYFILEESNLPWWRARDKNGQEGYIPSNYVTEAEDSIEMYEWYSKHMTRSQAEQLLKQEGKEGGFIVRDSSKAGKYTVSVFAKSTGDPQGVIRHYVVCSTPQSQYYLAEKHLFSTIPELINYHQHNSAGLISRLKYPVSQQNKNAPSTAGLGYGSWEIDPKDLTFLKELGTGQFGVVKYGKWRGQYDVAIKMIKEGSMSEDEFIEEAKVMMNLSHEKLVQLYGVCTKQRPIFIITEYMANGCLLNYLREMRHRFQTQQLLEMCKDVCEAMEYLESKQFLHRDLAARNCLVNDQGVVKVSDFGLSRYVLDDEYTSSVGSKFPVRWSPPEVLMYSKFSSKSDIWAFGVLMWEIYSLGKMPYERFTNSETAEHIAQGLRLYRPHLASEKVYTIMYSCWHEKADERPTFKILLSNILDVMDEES
T1 sequence (Q06187 whole entry, the tested form may be a part): as the sequence (Q06187 whole entry) above
Protocol for Mino cells: The IC50 was calculated using GraphPad Prism software with a four-parameter dose-response curve fit.

Turning to `Cc1c(NC(=O)c2ccc(C(C)(C)C)cc2)cccc1-c1cn(C)c(=O)c(Nc2ccc(C(=O)N3CCN(CCCCCCNC(=O)CNc4cccc5c4C(=O)N(C4CCC(=O)NC4=O)C5=O)CC3)cc2)n1` (stereo not shown) [DD-03-171, reference compound], the “NanoBRET(%)” value on BTK-NanoLuc fusion (1.00E-05 M) was 22.6421% and 28.6973% and 22%; on BTK-NanoLuc fusion (1.60E-08 M), 88.8537% and 90.4209% and 91.9881%; on BTK-NanoLuc fusion (2.00E-06 M), 21.3125% and 25.7571% and 22.7507%; at BTK-NanoLuc fusion (3.20E-09 M) it was 94.8868% and 96.3909% and 104.805%; at BTK-NanoLuc fusion (4.00E-07 M), 28.4685% and 42.1101% and 35.114%; on BTK-NanoLuc fusion (8.00E-08 M), 85.0919% and 75.63% and 91.5725%. In addition, the “Mino Cell Viability%” value with Mino cells (1.00E-06 M) is 32.4788% and 32.2293% and 34.0942% and 35.4207% and 39.7021%; in the data set with Mino cells (1.60E-09 M) it was 121.168% and 104.266% and 118.227% and 107.943% and 119.96%; with Mino cells (2.00E-07 M), 36.6289% and 34.2124% and 35.7227% and 37.3775% and 42.3025%; with Mino cells (3.20E-10 M), 132.424% and 103.701% and 122.994% and 107.72% and 141.013%; in the data set with Mino cells (4.00E-08 M), 54.0832% and 46.6234% and 39.8335% and 52.888% and 75.1359%; in the data set with Mino cells (5.00E-06 M), 39.9385% and 37.4432% and 38.9273% and 39.4395% and 47.3326%. Besides, the “Mino Cell Viability%” value with Mino cells (8.00E-09 M) is 56.5785% and 60.1245% and 102.834% and 110.123% and 118.502%. Further, the IC50 (as a rule, the concentration that inhibits the measured activity by half) in the data set on Mino cells (Mino cells, 72 h, Alamar Blue) was 50 nM; in the data set with MOLM-14 cells (read-out: Cell viability IC50, MOLM-14 cells, 72 h, Alamar Blue), above 10000 nM. Besides, the “MOLM-14 Cell Viability%” value is 97.5451% and 84.66% and 89.4149% and 67.5953% and 78.1969% with MOLM-14 cells (1.00E-05 M); 83.9791% and 92.5848% and 65.981% and 62.9872% and 76.0308% with MOLM-14 cells (1.60E-08 M); 93.025% and 80.0636% and 90.2426% and 67.3429% and 78.4493% in the data set with MOLM-14 cells (2.00E-06 M); 93.7588% and 71.6575% and 86.4445% and 88.7633% and 72.8844% in the data set with MOLM-14 cells (3.20E-09 M); 97.2809% and 75.3792% and 70.6831% and 69.0687% and 74.7981% in the data set on MOLM-14 cells (4.00E-07 M); 106.497% and 80.5215% and 63.4862% and 80.6741% and 69.8495% in the data set with MOLM-14 cells (6.40E-10 M). For the same molecule, the “MOLM-14 Cell Viability%” value in the data set on MOLM-14 cells (8.00E-08 M) is 102.353% and 96.782% and 97.1048% and 76.9172% and 82.8931%.

`CN(CCCNC(=O)COc1cccc2c1C(=O)N(C1CCC(=O)NC1=O)C2=O)C(C)(C)C=C(C#N)C(=O)N1CCC[C@@H](n2nc(-c3ccc(Oc4ccccc4)cc3)c3c(N)ncnc32)C1` (stereo partly shown) [RC-9]: the “Degradation at 200 nM (percentage of BTK degradation)” value on BTK was found to be 30%. Moreover, the “Cell viability, MOML-14” value in the data set on MOLM-14 cells (drug concentration 1.00E-05 M) was -0.2322 and -0.06633 and -0.1327 and -0.8823 and -0.4179; in the data set with MOLM-14 cells (drug concentration 1.60E-08 M), 85.6517 and 91.2637 and 79.403 and 91.5091 and 93.4859; in the data set with MOLM-14 cells (drug concentration 2.00E-06 M), 9.041 and 7.098 and 11.4959 and 8.756 and 8.279; with MOLM-14 cells (drug concentration 3.20E-09 M) it was 93.4859 and 94.8192 and 76.9154 and 100.657 and 77.1542; in the data set on MOLM-14 cells (drug concentration 4.00E-07 M), 42.6932 and 44.9353 and 60.7695 and 44.0464 and 46.4279; in the data set with MOLM-14 cells (drug concentration 6.40E-10 M), 113.612 and 82.5937 and 85.9834 and 109.612 and 104.358. In addition, the “Cell viability, MOML-14” value in the data set with MOLM-14 cells (drug concentration 8.00E-08 M) was 79.6219 and 80.8756 and 76.0199 and 82.7728 and 91.7612.

As for `CN(CCOCCNC(=O)CNc1ccc2c(c1)C(=O)N(C1CCC(=O)NC1=O)C2=O)C(C)(C)C=C(C#N)C(=O)N1CCC[C@@H](n2nc(-c3ccc(Oc4ccccc4)cc3)c3c(N)ncnc32)C1` (stereo partly shown) [RC-10], at BTK (indicated doses, 24 h), the “BTK degradation (in words)” value is given as “cannot induce any BTK degradation”. In addition, the “Cell viability, MOML-14” value in the data set on MOLM-14 cells (drug concentration 1.00E-05 M) is 6.648 and 2.814 and 5.855 and 1.001 and 2.266; in the data set with MOLM-14 cells (drug concentration 1.60E-08 M), 84.9481 and 73.56 and 76.0529 and 61.3598 and 63.4939; in the data set with MOLM-14 cells (drug concentration 2.00E-06 M) it was 15.1841 and 8.971 and 14.3343 and 7.989 and 11.1237; with MOLM-14 cells (drug concentration 3.20E-09 M) it was 88.1209 and 77.847 and 69.5373 and 71.6336 and 68.102; with MOLM-14 cells (drug concentration 4.00E-07 M), 52.6534 and 38.4514 and 40.831 and 37.0727 and 36.6572; with MOLM-14 cells (drug concentration 6.40E-10 M), 87.0746 and 98.5269 and 68.2342 and 85.7413 and 74.9197. In addition, in the data set with MOLM-14 cells (drug concentration 8.00E-08 M), the “Cell viability, MOML-14” value was 70.5949 and 66.9688 and 60.3777 and 66.9311 and 50.1039.

For `CN(CCOCCOCCOCCNC(=O)CNc1cccc2c1C(=O)N(C1CCC(=O)NC1=O)C2=O)C(C)(C)C=C(C#N)C(=O)N1CCCC(n2nc(-c3ccc(Oc4ccccc4)cc3)c3c(N)ncnc32)C1` (stereo not shown) [RC-5], the “Degradation at 200 nM (percentage of BTK degradation)” value on BTK is on record as 56%. The “Cell viability, MOML-14” value with MOLM-14 cells (drug concentration 1.00E-05 M) is 1.391 and 1.373 and 1.5492 and 0.5927 and 1.848; in the data set on MOLM-14 cells (drug concentration 1.60E-08 M), 74.2327 and 92.4124 and 92.4946 and 100.939 and 90.3468; in the data set on MOLM-14 cells (drug concentration 2.00E-06 M), 10.6332 and 11.0087 and 14.6588 and 13.2797 and 19.9049; with MOLM-14 cells (drug concentration 3.20E-09 M) it was 91.6026 and 96.0448 and 87.3775 and 99.3838 and 93.8853; with MOLM-14 cells (drug concentration 4.00E-07 M) it was 64.738 and 68.3352 and 96.2033 and 70.0311 and 76.4802; in the data set on MOLM-14 cells (drug concentration 6.40E-10 M), 101.496 and 98.8968 and 89.2553 and 98.5858 and 94.7773. Besides, the “Cell viability, MOML-14” value in the data set with MOLM-14 cells (drug concentration 8.00E-08 M) is 91.7317 and 86.3095 and 87.3482 and 74.3794 and 93.7562.
